For this assay, the system named is lung cancer cell lines (e.g. NCI-H23, NCI-H1229). Put plainly: Cell based assay, cell viability (CellTiter-Glo), lung cancer cell lines. The following applies: Homo sapiens. In short, it runs like this:
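72-hour continuous compound exposure, 0 to 2 μM final, begun one day after seeding; endpoint is ATP-based luminescent viability.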

[1] abbreviates: A549 cells, 72 hours treatment, CellTiter-Glo, read-out: IC50, lung cancer cell line A549.
[2] abbreviates: DMS 114 cells, 72 hours treatment, CellTiter-Glo, read-out: IC50, lung cancer cell line DMS 114.
The mark [3] stands for this setting: MRC-5 cells, 72 hours treatment, CellTiter-Glo, read-out: IC50.
Setting [4] is: NCI-H23 cells, 72 hours treatment, CellTiter-Glo, read-out: IC50, lung cancer cell line NCI-H23.
[5] abbreviates: NCI-H460 cells, 72 hours treatment, CellTiter-Glo, read-out: IC50, lung cancer cell line NCI-H460.
Setting [6] is: NCI-H522 cells, 72 hours treatment, CellTiter-Glo, read-out: IC50, lung cancer cell line NCI-H522.
Where [7] appears, read: NCI-H1299 cells, 72 hours treatment, CellTiter-Glo, read-out: IC50, lung cancer cell line NCI-H1299.
The mark [8] stands for this setting: NCI-H1437 cells, 72 hours treatment, CellTiter-Glo, read-out: IC50, lung cancer cell line NCI-H1437.

Read-outs that look alike come from different tables or passages of the source.

Consider `CC(=O)c1c(SCc2cccc(C#N)c2)[nH]c2c(Br)ccc(Cl)c2c1=O` [Compound 27, 3-(((3-acetyl-8-bromo-5-chloro-4-oxo-1,4-dihydroquinolin-2-yl)thio)methyl)benzonitrile], for which the IC50 (usually the concentration needed to halve the response being measured) reads like this: under setting [1], above 2000 nM; under setting [2], above 2000 nM; under setting [3], above 2000 nM; under setting [4], above 2000 nM; under setting [5], above 2000 nM; under setting [6], above 2000 nM. Further, the concentration for half-maximal inhibition (IC50) runs as follows: under setting [7], above 2000 nM; under setting [8], above 10000 nM.

Regarding `CC(=O)c1c([S+](C)[O-])n(S(=O)(=O)c2ccc(C(C)(C)C)cc2)c2c(Br)ccc(Cl)c2c1=O` (stereo not drawn) [Compound 42, 3-acetyl-8-bromo-1-((4-(tert-butyl)phenyl)sulfonyl)-5-chloro-2-(methylsulfinyl)quinolin-4(1H)-one], the IC50 under setting [1] was above 2000 nM; the IC50 under setting [2] was above 2000 nM; the IC50 under setting [3] is above 2000 nM; the IC50 under setting [4] is 1840 nM; the 50% inhibitory concentration (IC50) under setting [5] was above 2000 nM; the IC50 under setting [6] is above 2000 nM. Also, the concentration for half-maximal inhibition (IC50) was above 2000 nM under setting [7] and above 10000 nM under setting [8].

Take `CC(=O)c1c([S+]([O-])C(C)C)[nH]c2c(Br)ccc(Cl)c2c1=O` (stereo not drawn) [Compound 25, 3-acetyl-8-bromo-5-chloro-2-(isopropylsulfinyl)quinolin-4(1H)-one]: the IC50 is, setting by setting: under setting [1], above 2000 nM; under setting [2], above 2000 nM; under setting [3], above 2000 nM; under setting [4], above 2000 nM; under setting [5], above 2000 nM; under setting [6], above 2000 nM. For the same molecule, the IC50 is above 2000 nM under setting [7] and above 10000 nM under setting [8].

With `CC(=O)c1c([S+](C)[O-])[nH]c2c(Br)ccc(Cl)c2c1=O` (stereo not drawn) [Compound 1, 3-acetyl-8-bromo-5-chloro-2-(methylsulfinyl)quinolin-4(1H)-one], the IC50 was above 2000 nM under setting [1]; above 2000 nM under setting [2]; 1340 nM under setting [3]; 1340 nM under setting [4]; above 2000 nM under setting [5]; above 2000 nM under setting [6]. The IC50 by setting is: under setting [7], 1880 nM; under setting [8], above 10000 nM.

For the molecule `CSc1c(C(C)=O)c(=O)c2c(Cl)ccc(Br)c2n1C` [Compound 5, 3-acetyl-8-bromo-5-chloro-1-methyl-2-(methylthio)quinolin-4(1H)-one], the IC50 under setting [1] is above 2000 nM; the IC50 under setting [2] was above 2000 nM; the concentration for half-maximal inhibition (IC50) under setting [3] was above 2000 nM; the IC50 under setting [4] was above 2000 nM; the IC50 under setting [5] was above 2000 nM; the IC50 under setting [6] is above 2000 nM. Moreover, the 50% inhibitory concentration (IC50) runs as follows: under setting [7], above 2000 nM; under setting [8], above 10000 nM.

As to `CC(=O)c1c([S+](C)[O-])n(C(C)=O)c2c(Br)ccc(Cl)c2c1=O` (stereo not drawn) [Compound 19, 1,1′-(8-bromo-5-chloro-2-(methylsulfinyl)-4-oxoquinoline-1,3(4H)-diyl)bis(ethan-1-one)], the IC50 reads like this: under setting [1], above 2000 nM; under setting [2], above 2000 nM; under setting [3], above 2000 nM; under setting [4], above 2000 nM; under setting [5], above 2000 nM; under setting [6], above 2000 nM. Also, the IC50 is above 2000 nM under setting [7] and above 10000 nM under setting [8].

For the molecule `CSc1c(C(C)=O)c(=O)c2c(Cl)ccc(Br)c2n1C(C)=O` [Compound 18, 1,1′-(8-bromo-5-chloro-2-(methylthio)-4-oxoquinoline-1,3(4H)-diyl)bis(ethan-1-one)], the IC50 is, setting by setting: under setting [1], above 2000 nM; under setting [2], above 2000 nM; under setting [3], above 2000 nM; under setting [4], above 2000 nM; under setting [5], above 2000 nM; under setting [6], above 2000 nM. Further, the IC50 runs as follows: under setting [7], above 2000 nM; under setting [8], above 10000 nM.

For the molecule `CCS(=O)(=O)n1c([S+](C)[O-])c(C(C)=O)c(=O)c2c(Cl)ccc(Br)c21` (stereo not drawn) [Compound 39, 3-acetyl-8-bromo-5-chloro-1-(ethylsulfonyl)-2-(methylsulfinyl)quinolin-4(1H)-one], the IC50 is above 2000 nM under setting [1]; above 2000 nM under setting [2]; above 2000 nM under setting [3]; above 2000 nM under setting [4]; above 2000 nM under setting [5]; above 2000 nM under setting [6]. In addition, the IC50 is above 2000 nM under setting [7] and above 10000 nM under setting [8].

Consider `CC(=O)c1c(SCc2ccc(Cl)cc2)[nH]c2c(Br)ccc(Cl)c2c1=O` [Compound 10, 3-acetyl-8-bromo-5-chloro-2-((4-chlorobenzyl)thio)quinolin-4(1H)-one], for which the IC50 was above 2000 nM under setting [1]; above 2000 nM under setting [2]; above 2000 nM under setting [3]; above 2000 nM under setting [4]; above 2000 nM under setting [5]; above 2000 nM under setting [6]. For the same molecule, the IC50 under setting [7] was above 2000 nM and the half-maximal inhibitory concentration (IC50) under setting [8] is above 10000 nM.

`CC(=O)c1c([S+]([O-])Cc2ccc(S(F)(F)(F)(F)F)cc2)[nH]c2c(F)ccc(F)c2c1=O` (stereo not drawn) [Compound 80, 3-acetyl-5,8-difluoro-2-((4-(pentafluoro--sulfanyl)benzyl)sulfinyl)quinolin-4(1H)-one]: the half-inhibitory concentration (IC50) by setting is: under setting [1], above 2000 nM; under setting [2], above 2000 nM; under setting [3], above 2000 nM; under setting [4], above 2000 nM; under setting [5], above 2000 nM; under setting [6], above 2000 nM. The IC50 by setting is: under setting [7], above 2000 nM; under setting [8], above 10000 nM.

Consider `CC(=O)c1c([S+]([O-])Cc2cnc3[nH]ccc3c2)[nH]c2c(Br)ccc(Cl)c2c1=O` (stereo not drawn) [Compound 107, 2-(((1H-pyrrolo[2,3-b]pyridin-5-yl)methyl)sulfinyl)-3-acetyl-8-bromo-5-chloroquinolin-4(1H)-one], for which the IC50 was above 2000 nM (Lung cancer cell line A549, 72 hours, cell viability (CellTiter-Glo), read-out: IC50, A549); above 2000 nM (Lung cancer cell line DMS 114, 72 hours, cell viability (CellTiter-Glo), read-out: IC50, DMS 114); above 2000 nM (Lung cancer cell line NCI-H23, 72 hours, cell viability (CellTiter-Glo), read-out: IC50, NCI-H23); above 2000 nM (Lung cancer cell line NCI-H460, 72 hours, cell viability (CellTiter-Glo), read-out: IC50, NCI-H460); above 2000 nM (Lung cancer cell line NCI-H522, 72 hours, cell viability (CellTiter-Glo), read-out: IC50, NCI-H522); above 2000 nM (Lung cancer cell line NCI-H1299, 72 hours, cell viability (CellTiter-Glo), read-out: IC50, NCI-H1299). The IC50 runs as follows: (Lung cancer cell line NCI-H1437, 72 hours, cell viability (CellTiter-Glo), read-out: IC50, NCI-H1437) above 10000 nM; (MRC-5 (listed under Lung cancer cell line), 72 hours, cell viability (CellTiter-Glo), read-out: IC50, MRC-5) above 2000 nM.

For `COC(=O)c1ccc(C[S+]([O-])c2[nH]c3c(Cl)ccc(Cl)c3c(=O)c2C(C)=O)cc1` (stereo not drawn) [Compound 91, methyl 4-(((3-acetyl-5,8-dichloro-4-oxo-1,4-dihydroquinolin-2-yl)sulfinyl)methyl)benzoate], the IC50 runs as follows: under setting [1], above 2000 nM; under setting [2], above 2000 nM; under setting [3], above 2000 nM; under setting [4], 1800 nM; under setting [5], above 2000 nM; under setting [6], above 2000 nM. In addition, the concentration for half-maximal inhibition (IC50) is above 2000 nM under setting [7] and above 10000 nM under setting [8].

With `CSc1c(C(C)=O)c(=O)c2c(Cl)ccc(Br)c2n1S(=O)(=O)c1ccc(Cl)cc1` [Compound 37, 3-acetyl-8-bromo-5-chloro-1-((4-chlorophenyl)sulfonyl)-2-(methylthio)quinolin-4(1H)-one], the IC50 runs as follows: under setting [1], above 2000 nM; under setting [2], above 2000 nM; under setting [3], above 2000 nM; under setting [4], above 2000 nM; under setting [5], above 2000 nM; under setting [6], above 2000 nM. For the same molecule, the IC50 was above 2000 nM under setting [7] and above 10000 nM under setting [8].

Take `CC(=O)c1c(SCc2ccc(F)c(Cl)c2)[nH]c2c(Br)ccc(Cl)c2c1=O` [Compound 30, 3-acetyl-8-bromo-5-chloro-2-((3-chloro-4-fluorobenzyl)thio)quinolin-4(1H)-one]: the IC50 is, setting by setting: under setting [1], above 2000 nM; under setting [2], above 2000 nM; under setting [3], above 2000 nM; under setting [4], above 2000 nM; under setting [5], above 2000 nM; under setting [6], above 2000 nM. In addition, the 50% inhibitory concentration (IC50) was above 2000 nM under setting [7] and above 10000 nM under setting [8].

In the case of `CC(=O)c1c([S+](C)[O-])n(C(=O)c2ccc(Br)cc2)c2c(Br)ccc(Cl)c2c1=O` (stereo not drawn) [Compound 9, 3-acetyl-8-bromo-1-(4-bromobenzoyl)-5-chloro-2-(methylsulfinyl)quinolin-4(1H)-one], the half-inhibitory concentration (IC50) was above 2000 nM under setting [1]; above 2000 nM under setting [2]; above 2000 nM under setting [3]; 900 nM under setting [4]; above 2000 nM under setting [5]; above 2000 nM under setting [6]. Moreover, the IC50 runs as follows: under setting [7], 1260 nM; under setting [8], above 10000 nM.

As for `CC(=O)c1c([S+]([O-])Cc2ccccc2C#N)[nH]c2c(Br)ccc(Cl)c2c1=O` (stereo not drawn) [Compound 58, 2-(((3-acetyl-8-bromo-5-chloro-4-oxo-1,4-dihydroquinolin-2-yl)sulfinyl)methyl)benzonitrile], the IC50 under setting [1] was above 2000 nM; the IC50 under setting [2] is above 2000 nM; the concentration for half-maximal inhibition (IC50) under setting [3] amounted to 760 nM; the concentration for half-maximal inhibition (IC50) under setting [4] came to 800 nM; the half-inhibitory concentration (IC50) under setting [5] is above 2000 nM; the IC50 under setting [6] was 1940 nM. The IC50 is, setting by setting: under setting [7], 1150 nM; under setting [8], above 10000 nM.

Consider `CC(=O)c1c([S+]([O-])Cc2ccccc2)n(C(=O)c2ccc(Br)cc2)c2c(Br)ccc(Cl)c2c1=O` (stereo not drawn) [Compound 20, 3-acetyl-2-(benzylsulfinyl)-8-bromo-1-(4-bromobenzoyl)-5-chloroquinolin-4(1H)-one], for which the IC50 runs as follows: under setting [1], above 2000 nM; under setting [2], above 2000 nM; under setting [3], above 2000 nM; under setting [4], 1390 nM; under setting [5], 1580 nM; under setting [6], above 2000 nM. The IC50 reads like this: under setting [7], 1580 nM; under setting [8], above 2000 nM.

Take `CC(=O)c1c([S+]([O-])Cc2cc(C)on2)[nH]c2c(F)ccc(F)c2c1=O` (stereo not drawn) [Compound 82, 3-acetyl-5,8-difluoro-2-(((5-methylisoxazol-3-yl)methyl)sulfinyl)quinolin-4(1H)-one]: the concentration for half-maximal inhibition (IC50) was above 2000 nM under setting [1]; above 2000 nM under setting [2]; above 2000 nM under setting [3]; above 2000 nM under setting [4]; above 2000 nM under setting [5]; above 2000 nM under setting [6]. The half-maximal inhibitory concentration (IC50) was above 2000 nM under setting [7] and above 10000 nM under setting [8].
